# Test results reported in article PMC7457137, “An Integrated Pharmacokinetic Study of an Acanthopanax senticosus Extract Preparation by Combination of Virtual Screening, Systems Pharmacology, and Multi-Component Pharmacokinetics in Rats” (Frontiers in Pharmacology, 2020).
# Tests used:
# [1] = Multi-component PK in rats after i.v. administration of ASEP; type: in vivo, Sprague-Dawley rats; conditions: male, Sprague-Dawley, rat, iv
# Experimental: The animal experiments were conducted in line with the Guide for the Care and Use of Laboratory Animals (published by the USA National Institutes of Health, NIH Publication no. 85-23, revised 1996), which were approved by the Animal Care and Use Committee of the College of Animal Science (College of Bee Science), Fujian Agriculture and Forestry University (Approval Number: […]2019004). […] All rats were acclimated to the facilities and environment for 7 days before the experiments. […] The gradient elution was carried out by the mobile phase water with 0.1% formic acid (A) and methanol (B). […] The column temperature and flow rate were at 35 °C and 0.5 ml/min, resepectively. 5 μl sample solution was injected for the HPLC-MS analysis. The electrospray ionization (ESI) source conditions were as follows: block heating temperature was kept at 400 °C; desolvation line temperature was set at 250 °C; dry gas (nitrogen) flow rate was kept at 15 L/min; and auxiliary gas (nitrogen) flow rate was 3 L/min. […] The plasma samples were separated by centrifugation, followed by storing at -20 °C before analysis. […] A DAS 3.0 software (Chinese Pharmacologic Society, Beijing, China) was used to calculate the noncompartmental PK parameters. All the results were presented as mean ± SD, and statistics analysis was done with a single-tailed Student's t test in the work.
# insulin resistance = tested on: insulin resistance; set-up: method as in Ma et al., 2015; conditions: high-fat diet-fed rats; ref Ma et al., 2015; cited from earlier work
# [2] = tested on: human umbilical vein endothelial cells; set-up: method as in Lin et al., 2017; Hu et al., 2018; conditions: ref Lin et al., 2017, Hu et al., 2018; cited from earlier work
# zebrafish model = tested on: zebrafish model; set-up: method as in Lin et al., 2017; Hu et al., 2018; conditions: ref Lin et al., 2017, Hu et al., 2018; cited from earlier work
# [3] = Stability of the compounds in rat plasma (LC-MS validation); type: in vitro ADME
# Text: According to the “Guidelines for non-clinical pharmacokinetics of drugs” issued by Centre for Drug Evaluation, National Medical Products Administration, China ([Guidelines for non-clinical pharmacokinetics of drugs, 2014]), the LC-MS method was validated by linearity, limits of detection (LOD), limits of quantification (LOQ), precision, accuracy, extraction recovery, matrix effect and stability of the 6 compounds in rat plasma. In brief, blank rat plasma was obtained from the other six rats. The standard mixture solution containing the 6 compounds (with the concentration of 1 mg/ml for each) was diluted with […] to prepare a series of working solution containing the 6 compounds (concentration level: 20, 50, 100, 250, 500 ng/ml and 1, 2.5, 5, 10, 25, 50, 100, 125 150, 200 μg/ml) and IS (2.5μg/ml). For calibration curve, 10 μl of the series of working solution containing the IS (2.5μg/ml) was added into 100 μl of blank plasma. Finally, 15 data points (2, 5, 10, 25, 50, 100, 250, 500 ng/ml and 1, 2.5, 5, 10, 12.5 15, 20 μg/ml) were used in the calibration curve linearity. Calibration curves were plotted by weighted linear regression of the peak area ratio of analyte to the IS against the related nominal concentration of the analyte. LOD and LOQ were defined as the detectable concentration at which the ratio of signal to noise was about 3 and 10, respectively ([Huang et al., 2019]). […] The extraction recovery and matrix effect were also assessed at the above-mentioned three concentration levels for the 6 ingredients in the spiked plasma samples ([Huang et al., 2019]). Stability was examined under the condition of setting un-treated plasma samples at ambient temperature for 6 h, and extracted plasma samples in auto-sampler for 10 h, as well as setting plasma samples for three freeze-thaw cycles and at −80°C for 15 days ([Guidelines for non-clinical pharmacokinetics of drugs, 2014]).
# AKT = tested on: AKT; set-up: method as in Yang et al., 2018; conditions: down-regulates transcriptional activity of FoxO1; ref Yang et al., 2018; cited from earlier work
compound,measurement,setting,value
"O=C(/C=C/c1ccc(O)c(O)c1)O[C@@H]1C[C@](O)(C(=O)O)C[C@@H](O)[C@H]1O [3-CQA, 3-caffeoylquinic acid]",AUC(0-t),"[1]; plasma, 1.76 ml/kg, rat plasma, Low group: single i.v. 1.76 ml/kg of 5 times concentrated ASEP, mean ± SD, n=3, read-out: AUC0-t",1830 ng·h/mL
same,AUC(0-inf),"[1]; plasma, 1.76 ml/kg, rat plasma, Low group: single i.v. 1.76 ml/kg of 5 times concentrated ASEP, mean ± SD, n=3, read-out: AUC0-∞",1830 ng·h/mL
same,clearance,"[1]; plasma, 1.76 ml/kg, rat plasma, Low group: single i.v. 1.76 ml/kg of 5 times concentrated ASEP, mean ± SD, n=3, read-out: Cl (converted)",8.5 mL/min
same,MRT last,"[1]; plasma, 1.76 ml/kg, rat plasma, Low group: single i.v. 1.76 ml/kg of 5 times concentrated ASEP, mean ± SD, n=3, read-out: MRT0-t",25.8 ± 1.2 min
same,MRT inf,"[1]; plasma, 1.76 ml/kg, rat plasma, Low group: single i.v. 1.76 ml/kg of 5 times concentrated ASEP, mean ± SD, n=3, read-out: MRT0-∞",25.8 ± 1.2 min
same,Vd,"[1]; plasma, 1.76 ml/kg, rat plasma, Low group: single i.v. 1.76 ml/kg of 5 times concentrated ASEP, mean ± SD, n=3, read-out: Vd",0.26 ± 0.01 L
same,half-life,"[1]; plasma, 1.76 ml/kg, rat plasma, Low group: single i.v. 1.76 ml/kg of 5 times concentrated ASEP, mean ± SD, n=3, read-out: t 1/2 (converted)",21.6 ± 0.6 min
same,AUC(0-t),"[1]; plasma, 3.52 ml/kg, rat plasma, High group: single i.v. 3.52 ml/kg of 5 times concentrated ASEP, mean ± SD, n=3, read-out: AUC0-t",3410 ng·h/mL
same,AUC(0-inf),"[1]; plasma, 3.52 ml/kg, rat plasma, High group: single i.v. 3.52 ml/kg of 5 times concentrated ASEP, mean ± SD, n=3, read-out: AUC0-∞",3420 ng·h/mL
same,clearance,"[1]; plasma, 3.52 ml/kg, rat plasma, High group: single i.v. 3.52 ml/kg of 5 times concentrated ASEP, mean ± SD, n=3, read-out: Cl (converted)",9 mL/min
same,MRT last,"[1]; plasma, 3.52 ml/kg, rat plasma, High group: single i.v. 3.52 ml/kg of 5 times concentrated ASEP, mean ± SD, n=3, read-out: MRT0-t",25.2 min
same,MRT inf,"[1]; plasma, 3.52 ml/kg, rat plasma, High group: single i.v. 3.52 ml/kg of 5 times concentrated ASEP, mean ± SD, n=3, read-out: MRT0-∞",25.8 min
same,Vd,"[1]; plasma, 3.52 ml/kg, rat plasma, High group: single i.v. 3.52 ml/kg of 5 times concentrated ASEP, mean ± SD, n=3, read-out: Vd",0.64 L
same,half-life,"[1]; plasma, 3.52 ml/kg, rat plasma, High group: single i.v. 3.52 ml/kg of 5 times concentrated ASEP, mean ± SD, n=3, read-out: t 1/2 (converted)",48.6 min
same,effect on insulin resistance,insulin resistance,improve insulin resistance
same,effect on VEGF-induced angiogenesis,[2],significant inhibitory effects
same,effect on VEGF-induced angiogenesis,zebrafish model,significant inhibitory effects
"C=C[C@@H]1C2=CCOC(=O)C2=CO[C@H]1O[C@@H]1O[C@H](CO)[C@@H](O)[C@H](O)[C@H]1O [GPS, gentiopicroside]",AUC0-∞,[1]; in vivo,118.37 ± 6.75 ng·h/mL
same,AUC(0-t),[1]; in vivo,108.95 ± 5.92 ng·h/mL
same,Cl,[1]; in vivo,3.83 ± 0.23 L/h
same,MRT0-t,[1]; in vivo,15.6 ± 0.6 min
same,MRT0-∞,[1]; in vivo,21 ± 2.4 min
same,Vd,[1]; in vivo,1.45 ± 0.16 L
same,t 1/2,[1]; in vivo,15.6 ± 2.4 min
same,AUC(0-t),"[1]; in vivo, AUC0-t",63.6 ± 2.53 ng·h/mL
same,AUC(0-inf),"[1]; in vivo, AUC0-∞",68.2 ± 1.88 ng·h/mL
same,clearance,"[1]; in vivo, Cl",55.3 mL/min
same,MRT last,"[1]; in vivo, MRT0-t",21.6 ± 0.6 min
same,MRT inf,"[1]; in vivo, MRT0-∞",25.2 ± 3 min
same,Vd,"[1]; in vivo, Vd",1.08 ± 0.26 L
same,half-life,"[1]; in vivo, t 1/2",13.8 ± 3.6 min
same,"Stability, RE","[3]; extracted plasma samples, 10h in auto-sampler vials, high spiked level (HQC, 8000-16000 ng/mL)",-9.29%
same,"Stability, RE","[3]; extracted plasma samples, 10h in auto-sampler vials, low spiked level (LQC, 5-30 ng/mL)",10.09%
same,"Stability, RE","[3]; extracted plasma samples, 10h in auto-sampler vials, middle spiked level (MQC, 400-1600 ng/mL)",2.52%
same,"Stability, RE","[3]; rat plasma, 6h at room temperature, high spiked level (HQC, 8000-16000 ng/mL)",-13.56%
same,"Stability, RE","[3]; rat plasma, 6h at room temperature, low spiked level (LQC, 5-30 ng/mL)",-10.12%
same,"Stability, RE","[3]; rat plasma, 6h at room temperature, middle spiked level (MQC, 400-1600 ng/mL)",-6.72%
same,"Stability, RE","[3]; rat plasma, freeze-thaw stability (three cycles), high spiked level (HQC, 8000-16000 ng/mL)",-2.10%
same,"Stability, RE","[3]; rat plasma, freeze-thaw stability (three cycles), low spiked level (LQC, 5-30 ng/mL)",14.78%
same,"Stability, RE","[3]; rat plasma, freeze-thaw stability (three cycles), middle spiked level (MQC, 400-1600 ng/mL)",1.22%
same,"Stability, RE","[3]; rat plasma, long-term stability (-80℃,15 days), high spiked level (HQC, 8000-16000 ng/mL)",9.68%
same,"Stability, RE","[3]; rat plasma, long-term stability (-80℃,15 days), low spiked level (LQC, 5-30 ng/mL)",12.72%
same,"Stability, RE","[3]; rat plasma, long-term stability (-80℃,15 days), middle spiked level (MQC, 400-1600 ng/mL)",4.29%
same,effect on phosphorylation of AKT,AKT,activate the phosphorylation of AKT
